# Laboratory results: patent US9765029B2, “Pyridine compounds as sodium channel blockers” (Purdue Pharma L.P., priority 2010, dated 2017)
# Tested on: FCA-induced inflammation of the rat hind paw
# Test: Freund's complete adjuvant (FCA) model of inflammatory pain, paw withdrawal threshold (PWT)
# Assay type: in vivo
# Description: Test Animals: Each experiment uses rats weighing between 200-260 g at the start of the experiment. The rats are group-housed and have free access to food and water at all times, except prior to oral administration of a test compound when food is removed for 16 hours before dosing. A control group acts as a comparison to rats treated with a compound of Formulae I-XIII. The control group is administered the carrier as used for the test compound. The volume of carrier administered to the control group is the same as the volume of carrier and test compound administered to the test group.
# To assess the actions of the compounds of Formulae I-XIII on the treatment of inflammatory pain the Freund's complete adjuvant (“FCA”) model of inflammatory pain was used. […] 24 hour post injection, the animal was assessed for response to noxious mechanical stimuli by determining the paw withdrawal threshold (PWT), or to noxious thermal stimuli by determining the paw withdrawal latency (PWL), as described below. […] Responses to noxious mechanical or thermal stimuli were determined 1, 3, and 5 hours post administration (admin). […]
# Sensitivity to noxious mechanical stimuli can be measured in animals using the paw pressure test to assess mechanical hyperalgesia. […] PWT is determined once for each rat at each time point. PWT can be measured only in the injured paw, or in both the injured and non-injured paw. […]
structure (smiles),measurement,setting,value
"NC(=O)[C@H](CO)NC(=O)c1cccc(-c2ccc(Oc3ccc(F)cc3)cc2)n1 [Compound 47, 6-[4-(4-fluoro-phenoxy)-phenyl]-pyridine-2-carboxylic acid ((S)-1-carbamoyl-2-hydroxy-ethyl)-amide]",increase in PWT,"10 mg/kg oral (PO), 3 h",statistically significant increase
same,increase in PWT,"30 mg/kg oral (PO), 1, 3 and 5 h",statistically significant increase
